Laboratory results taken from ChEMBL document CHEMBL5120945, “First-in-Class Allosteric Inhibitors of DNMT3A Disrupt Protein-Protein Interactions and Induce Acute Myeloid Leukemia Cell Differentiation” (J Med Chem, 2022).
The source made the active and inactive calls.

Experiments:
[1] = target: T1, DNMT3A2/3L complex (Homo sapiens) (UniProt Q9Y6K1+Q9UJW3); test: […] of wild type full length recombinant human DNMT3A expressed in NiCo21(DE3) competent Escherichia coli cells to DNMT3L protein-protein interaction
T1 sequence (Q9UJW3 whole entry, looked up): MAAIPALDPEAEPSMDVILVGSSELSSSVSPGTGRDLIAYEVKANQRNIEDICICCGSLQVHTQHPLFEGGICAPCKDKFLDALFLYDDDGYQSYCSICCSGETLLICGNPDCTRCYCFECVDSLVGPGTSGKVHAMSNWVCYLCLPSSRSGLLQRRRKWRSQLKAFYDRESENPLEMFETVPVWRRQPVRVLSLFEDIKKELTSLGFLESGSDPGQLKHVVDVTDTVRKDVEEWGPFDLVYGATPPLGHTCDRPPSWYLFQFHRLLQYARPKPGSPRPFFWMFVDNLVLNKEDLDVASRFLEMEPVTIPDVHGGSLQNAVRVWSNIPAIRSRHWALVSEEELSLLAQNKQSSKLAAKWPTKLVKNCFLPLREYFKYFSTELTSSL
T1 sequence (Q9Y6K1 whole entry, looked up): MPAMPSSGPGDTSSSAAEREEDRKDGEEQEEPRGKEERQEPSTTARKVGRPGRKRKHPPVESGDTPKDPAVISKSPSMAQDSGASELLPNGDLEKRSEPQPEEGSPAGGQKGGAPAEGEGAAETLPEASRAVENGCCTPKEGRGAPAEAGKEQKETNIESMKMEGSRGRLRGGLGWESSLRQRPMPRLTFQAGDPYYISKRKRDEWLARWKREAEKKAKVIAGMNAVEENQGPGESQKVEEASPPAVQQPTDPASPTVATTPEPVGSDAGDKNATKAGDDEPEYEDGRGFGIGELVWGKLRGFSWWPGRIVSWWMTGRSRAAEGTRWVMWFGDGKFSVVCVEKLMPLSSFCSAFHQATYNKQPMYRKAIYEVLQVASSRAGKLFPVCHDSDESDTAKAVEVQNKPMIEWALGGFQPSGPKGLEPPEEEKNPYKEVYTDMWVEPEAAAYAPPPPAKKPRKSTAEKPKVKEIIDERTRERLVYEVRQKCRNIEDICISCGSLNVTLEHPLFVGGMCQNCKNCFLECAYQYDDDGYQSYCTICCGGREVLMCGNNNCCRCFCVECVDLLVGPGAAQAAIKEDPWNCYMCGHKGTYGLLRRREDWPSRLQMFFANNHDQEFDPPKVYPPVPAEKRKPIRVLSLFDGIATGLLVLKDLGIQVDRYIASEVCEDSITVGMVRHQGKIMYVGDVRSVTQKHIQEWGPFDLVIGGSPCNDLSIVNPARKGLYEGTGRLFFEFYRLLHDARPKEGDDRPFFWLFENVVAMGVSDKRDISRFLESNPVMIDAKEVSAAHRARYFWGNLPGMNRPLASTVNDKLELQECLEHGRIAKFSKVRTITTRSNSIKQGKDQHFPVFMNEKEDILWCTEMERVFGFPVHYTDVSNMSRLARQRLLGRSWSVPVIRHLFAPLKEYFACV

[2] = target: Lysine-specific demethylase 5A (Homo sapiens) (UniProt P29375); test: Inhibition of KDM5A (1 to 797) activity using 21-mer biotinylated H3K4me3 peptide measured after 40 mins by TR-FRET assay
Lysine-specific demethylase 5A (Homo sapiens), sequence (P29375 whole entry): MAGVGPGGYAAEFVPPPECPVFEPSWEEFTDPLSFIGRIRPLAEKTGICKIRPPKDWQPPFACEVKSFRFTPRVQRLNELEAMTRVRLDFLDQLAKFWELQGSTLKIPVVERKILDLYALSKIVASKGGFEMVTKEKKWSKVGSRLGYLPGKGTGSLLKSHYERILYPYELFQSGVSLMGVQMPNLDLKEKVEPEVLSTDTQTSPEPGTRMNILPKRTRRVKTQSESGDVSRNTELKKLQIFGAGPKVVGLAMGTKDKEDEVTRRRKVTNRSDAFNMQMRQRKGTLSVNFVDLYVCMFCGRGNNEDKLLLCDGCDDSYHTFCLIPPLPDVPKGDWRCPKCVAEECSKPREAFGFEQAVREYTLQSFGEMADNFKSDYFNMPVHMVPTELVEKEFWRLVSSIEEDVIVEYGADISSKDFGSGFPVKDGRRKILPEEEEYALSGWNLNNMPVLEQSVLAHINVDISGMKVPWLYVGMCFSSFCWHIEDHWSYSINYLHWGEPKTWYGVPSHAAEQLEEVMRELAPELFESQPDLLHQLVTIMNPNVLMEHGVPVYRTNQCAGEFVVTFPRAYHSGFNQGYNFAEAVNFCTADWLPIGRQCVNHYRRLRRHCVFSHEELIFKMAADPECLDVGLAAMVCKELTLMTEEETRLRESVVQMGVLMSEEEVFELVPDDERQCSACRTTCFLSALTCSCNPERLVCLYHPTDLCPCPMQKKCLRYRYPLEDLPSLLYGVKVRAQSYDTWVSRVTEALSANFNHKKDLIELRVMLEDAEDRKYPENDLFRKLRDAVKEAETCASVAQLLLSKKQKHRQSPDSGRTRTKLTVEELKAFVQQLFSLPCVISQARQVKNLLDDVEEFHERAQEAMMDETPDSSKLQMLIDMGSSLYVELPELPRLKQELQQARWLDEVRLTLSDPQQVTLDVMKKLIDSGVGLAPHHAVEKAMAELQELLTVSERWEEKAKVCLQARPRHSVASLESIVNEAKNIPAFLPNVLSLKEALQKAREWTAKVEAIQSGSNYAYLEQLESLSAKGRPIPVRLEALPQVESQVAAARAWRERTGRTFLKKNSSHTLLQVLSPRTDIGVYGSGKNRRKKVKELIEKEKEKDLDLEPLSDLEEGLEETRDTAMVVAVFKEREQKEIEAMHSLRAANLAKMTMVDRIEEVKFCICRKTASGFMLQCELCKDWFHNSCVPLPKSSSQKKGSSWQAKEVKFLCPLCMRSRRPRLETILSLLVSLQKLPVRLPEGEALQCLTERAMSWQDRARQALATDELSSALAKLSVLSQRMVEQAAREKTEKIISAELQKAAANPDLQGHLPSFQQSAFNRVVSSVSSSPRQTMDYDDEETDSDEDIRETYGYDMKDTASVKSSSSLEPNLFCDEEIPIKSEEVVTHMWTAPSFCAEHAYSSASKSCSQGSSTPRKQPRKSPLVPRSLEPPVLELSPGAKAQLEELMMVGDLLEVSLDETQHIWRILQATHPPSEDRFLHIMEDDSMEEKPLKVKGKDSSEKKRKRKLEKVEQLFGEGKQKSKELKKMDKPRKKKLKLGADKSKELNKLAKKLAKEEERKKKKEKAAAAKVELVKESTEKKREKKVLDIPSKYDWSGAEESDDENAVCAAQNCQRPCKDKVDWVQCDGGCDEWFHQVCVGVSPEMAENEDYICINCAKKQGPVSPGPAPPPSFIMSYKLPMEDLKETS

[3] = target: T1, DNMT3A2/3L complex (Homo sapiens); test: Inhibition of wild type full length recombinant human DNMT3A expressed in NiCo21(DE3) competent Escherichia coli cells to DNMT3L (unknown origin) protein-protein interaction
Homo sapiens [4] = organism: Homo sapiens; test: Inhibition of full length recombinant human DNMT3A R882H mutant expressed in NiCo21(DE3) competent Escherichia coli cells to DNMT3L (unknown origin) protein-protein interaction
Homo sapiens [5] = organism: Homo sapiens; test: Inhibition of full length recombinant human DNMT3A R882H mutant expressed in NiCo21(DE3) competent Escherichia coli cells to human TDG
[6] = target: DNA (cytosine-5)-methyltransferase 3A (Homo sapiens) (UniProt Q9Y6K1); test: Inhibition of H3 peptide activated human full length DNMT3A expressed in NiCo21(DE3) competent Escherichia coli cells at 60 uM
DNA (cytosine-5)-methyltransferase 3A (Homo sapiens), sequence (Q9Y6K1 whole entry, looked up): as the sequence (Q9Y6K1 whole entry, looked up) above

[7] = target: DNA (cytosine-5)-methyltransferase 3A (Homo sapiens) (UniProt Q9Y6K1); test: Inhibition of wild type full length recombinant human DNMT3A expressed in NiCo21(DE3) competent Escherichia coli cells assessed as decrease the fluorescence anisotrophy of DNA bound protein using FAM/TGGATATCTAGGGGCGCTATGATAT as substrate incubated for 5 mins by microplate reader based fluorescence anisotropy assay
Homo sapiens [8] = organism: Homo sapiens; test: Inhibition of full length recombinant human DNMT3A R882H mutant expressed in NiCo21(DE3) competent Escherichia coli cells to human p53
Homo sapiens [9] = organism: Homo sapiens; test: Inhibition of full length recombinant human DNMT3A R882H mutant expressed in NiCo21(DE3) competent Escherichia coli cells
Homo sapiens [10] = organism: Homo sapiens; test: Inhibition of wild type full length recombinant human DNMT3A expressed in NiCo21(DE3) competent Escherichia coli cells to human TDG protein protein interaction using FAM/TGGATATCTAGGGGCGCTATGATAT as substrate incubated for 5 mins by microplate reader based fluorescence anisotropy assay; settings: DDE = dose-dependent effect
Homo sapiens [11] = organism: Homo sapiens; test: Inhibition of wild type full length recombinant human DNMT3A expressed in NiCo21(DE3) competent Escherichia coli cells to human p53 protein-protein interaction using FAM/TGGATATCTAGGGGCGCTATGATAT as substrate incubated for 5 mins by microplate reader based fluorescence anisotropy assay; settings: DDE = dose-dependent effect
Homo sapiens [12] = organism: Homo sapiens; test: Inhibition of full length recombinant human DNMT3A R882H mutant expressed in NiCo21(DE3) competent Escherichia coli cells to DNMT3L (unknown origin) using FAM-DNA as substrate
K562 [13] = test: Induction of myeloid differentiation in human K562 cells assessed as increase in CD11b level measured after 72 hrs by propidium iodide staining based flow cytometry; format: functional, cell-based; settings: DDE = dose-dependent effect
Kasumi 1 [14] = test: Induction of myeloid differentiation in human Kasumi 1 cells assessed as increase in CD11b level measured after 72 hrs by propidium iodide staining based flow cytometry; format: functional, cell-based; settings: DDE = dose-dependent effect
Homo sapiens [15] = organism: Homo sapiens; test: Inhibition of full length recombinant human DNMT3A R736 mutant tetramer expressed in NiCo21(DE3) competent Escherichia coli cells
[16] = target: T1, DNMT3A2/3L complex (Homo sapiens); test: Inhibition of DNMT3L-mediated wild type full length recombinant human DNMT3A homo tetramer expressed in NiCo21(DE3) competent Escherichia coli cells to DNMT3L protein-protein interaction assessed as DNA methylation using poly dl-dC as substrate incubated for 1 hr
MOLM-13 [17] = test: Induction of myeloid differentiation in human MOLM-13 cells assessed as increase in CD11b level measured after 72 hrs by propidium iodide staining based flow cytometry; format: functional, cell-based; settings: dose 5-10 µM, DDE = dose-dependent effect
K562 [18] = test: Induction of DNA methylation in human K562 cells at 5 uM by ELISA; format: functional, cell-based; settings: time 3.0 day, TDE = time-dependent effect
HL-60 [19] = test: Induction of apoptosis in human HL-60 cells measured after 72 hrs by annexinVstaining based flow cytometry; format: functional, cell-based; settings: dose 7-12 µM, DDE = dose-dependent effect
MV4-11 [20] = test: Induction of apoptosis in human MV4-11 cells measured after 72 hrs by annexinVstaining based flow cytometry; format: functional, cell-based; settings: dose 7-12 µM, DDE = dose-dependent effect
Homo sapiens [21] = organism: Homo sapiens; test: Inhibition of full length recombinant human DNMT3A E733A mutant tetramer expressed in NiCo21(DE3) competent Escherichia coli cells to DNMT3L (unknown origin) protein-protein interaction preincubated for 1 hr
OCI-AML-3 [22] = test: Induction of apoptosis in human OCI-AML-3 cells measured after 72 hrs by annexinV staining based flow cytometry; format: functional, cell-based; settings: dose 7-12 µM, DDE = dose-dependent effect
OCI-AML-3 [23] = test: Induction of DNA methylation in human OCI-AML-3 cells at 5 uM by ELISA; format: functional, cell-based; settings: time 3.0 day, TDE = time-dependent effect
Kasumi 1 [24] = test: Induction of apoptosis in human Kasumi 1 cells measured after 72 hrs by annexinV staining based flow cytometry; format: functional, cell-based; settings: dose 7-12 µM, DDE = dose-dependent effect
Homo sapiens [25] = organism: Homo sapiens; test: Inhibition of full length recombinant human DNMT3A R771A mutant expressed in NiCo21(DE3) competent Escherichia coli cells to DNMT3L (unknown origin) protein-protein interaction using FAM-DNA as substrate by fluorescence anisotropy assay
Homo sapiens [26] = organism: Homo sapiens; test: Inhibition of full length recombinant human DNMT3A R771A mutant tetramer expressed in NiCo21(DE3) competent Escherichia coli cells to DNMT3L (unknown origin) protein-protein interaction preincubated for 1 hr
[27] = target: T1, DNMT3A2/3L complex (Homo sapiens); test: Inhibition of DNMT3L-mediated wild type full length recombinant human DNMT3A hetero tetramer expressed in NiCo21(DE3) competent Escherichia coli cells to DNMT3L protein-protein interaction assessed as DNA methylation using poly dl-dC as substrate incubated for 1 hr
K562 [28] = test: Induction of apoptosis in human K562 cells measured after 72 hrs by annexinV staining based flow cytometry; format: functional, cell-based; settings: dose 7-12 µM, DDE = dose-dependent effect
HL-60 [29] = test: Induction of DNA methylation in human HL-60 cells at 5 uM by ELISA; format: functional, cell-based; settings: time 3.0 day, TDE = time-dependent effect
Homo sapiens [30] = organism: Homo sapiens; test: Inhibition of full length recombinant human DNMT3A R736A mutant tetramer expressed in NiCo21(DE3) competent Escherichia coli cells to DNMT3L (unknown origin) protein-protein interaction preincubated for 1 hr
Homo sapiens [31] = organism: Homo sapiens; test: Inhibition of full length recombinant human DNMT3A R729A mutant tetramer expressed in NiCo21(DE3) competent Escherichia coli cells to DNMT3L (unknown origin) protein-protein interaction preincubated for 1 hr
Homo sapiens [32] = organism: Homo sapiens; test: Inhibition of full length recombinant human DNMT3A E733 mutant tetramer expressed in NiCo21(DE3) competent Escherichia coli cells
Homo sapiens [33] = organism: Homo sapiens; test: Inhibition of full length recombinant human DNMT3A R729 mutant tetramer expressed in NiCo21(DE3) competent Escherichia coli cells
THP-1 [34] = test: Induction of apoptosis in human THP-1 cells measured after 72 hrs by annexinV staining based flow cytometry; format: functional, cell-based; settings: dose 7-12 µM, DDE = dose-dependent effect
MOLM-13 [35] = test: Induction of apoptosis in human MOLM-13 cells measured after 72 hrs by annexinV staining based flow cytometry; format: functional, cell-based; settings: dose 7-12 µM, DDE = dose-dependent effect
MV4-11 [36] = test: Induction of myeloid differentiation in human MV4-11 cells assessed as increase in CD11b level measured after 72 hrs by propidium iodide staining based flow cytometry; format: functional, cell-based; settings: dose 5-10 µM, DDE = dose-dependent effect
THP-1 [37] = test: Induction of myeloid differentiation in human THP-1 cells assessed as increase in CD11b level measured after 72 hrs by propidium iodide staining based flow cytometry; format: functional, cell-based; settings: dose 5-10 µM, DDE = dose-dependent effect
OCI-AML-3 [38] = test: Induction of myeloid differentiation in human OCI-AML-3 cells assessed as increase in CD11b level measured after 72 hrs by propidium iodide staining based flow cytometry; format: functional, cell-based; settings: dose 5-10 µM, DDE = dose-dependent effect
HL-60 [39] = test: Induction of myeloid differentiation in human HL-60 cells assessed as increase in CD11b level measured after 72 hrs by propidium iodide staining based flow cytometry; format: functional, cell-based; settings: DDE = dose-dependent effect

COc1ccc(C2=NN(C3CCCCCC3)C(=O)C2(C)C)cc1OCCCCOc1ccc(-c2nn[nH]n2)cc1
active: Activity [1] | inhibition [2] | inhibition [3] | inhibition (Homo sapiens [4]) | inhibition (Homo sapiens [5]) | inhibition [6] | inhibition [7] | inhibition (Homo sapiens [8]) | inhibition (Homo sapiens [9]) | inhibition (Homo sapiens [10]) Dde | inhibition (Homo sapiens [11]) Dde | inhibition (Homo sapiens [12])

COc1ccc(C2=NN(C3CCCCCC3)C(=O)[C@@H]3CC=CC[C@H]23)cc1OCCCCOc1ccc(-c2nnn[nH]2)cc1
active: Activity (K562 [13]) Dde | Activity (Kasumi 1 [14]) Dde | inhibition (Homo sapiens [15]) | Activity [1] | inhibition [16] | Activity (MOLM-13 [17]) Dde | inhibition [2] | inhibition [3] | inhibition (Homo sapiens [4]) | inhibition (Homo sapiens [5]) | Activity (K562 [18]) Tde | Activity (HL-60 [19]) Dde | Activity (MV4-11 [20]) Dde | inhibition [6] | inhibition (Homo sapiens [21]) | Activity (OCI-AML-3 [22]) Dde | inhibition [7] | Activity (OCI-AML-3 [23]) Tde | Activity (Kasumi 1 [24]) Dde | inhibition (Homo sapiens [25]) | inhibition (Homo sapiens [8]) | inhibition (Homo sapiens [26]) | inhibition [27] | Activity (K562 [28]) Dde | Activity (HL-60 [29]) Tde | inhibition (Homo sapiens [30]) | inhibition (Homo sapiens [31]) | inhibition (Homo sapiens [9]) | inhibition (Homo sapiens [32]) | inhibition (Homo sapiens [10]) Dde | inhibition (Homo sapiens [33]) | Activity (THP-1 [34]) Dde | inhibition (Homo sapiens [11]) Dde | Activity (MOLM-13 [35]) Dde | Activity (MV4-11 [36]) Dde | Activity (THP-1 [37]) Dde | Activity (OCI-AML-3 [38]) Dde | Activity (HL-60 [39]) Dde | inhibition (Homo sapiens [12])
